Measured values published in patent US20070049611A1, “Phosphodiesterase 4 inhibitors” (priority 2005, published 2007).

Tests used:
[1] = tested on: rats; experiment: Passive avoidance in rats, an in vivo test for learning and memory; conditions: rat, MK-801 0.1 mg/kg, 24 hours after electric shock, p<0.001
Protocol: The test was performed as previously described (Zhang, H.-T., Crissman, A. M., Dorairaj, N. R., Chandler, L. J., and O'Donnell, J. M., Neuropsychopharmacology, 2000, 23, 198-204.). The apparatus (Model E10-16SC, Coulboum Instruments, Allentown, Pa.) consisted of a two-compartment chamber with an illuminated compartment connected to a darkened compartment by a guillotine door. The floor of the darkened compartment consisted of stainless steel rods through which an electric foot-shock could be delivered from a constant current source. All experimental groups were first habituated to the apparatus the day before the start of the experiment. During the training, the rat (Male Spraque-Dawley (Harlan) weighing 250 to 350 g) was placed in the illuminated compartment facing away from the closed guillotine door for 1 minute before the door was raised. The latency for entering the darkened compartment was recorded. After the rat entered the darkened compartment, the door was closed and a 0.5 mA electric shock was administered for 3 seconds. […] The latency for entering the darkened compartment was recorded for up to 180 seconds, at which time the trial was terminated.
(§1) All data were analyzed by analyses of variance (ANOVA); individual comparisons were made using Kewman-Keuls tests. […]

[2] = tested on: rats; experiment: Radial arm maze task in rats, an in vivo test for learning and memory; conditions: rat, MK-801 0.1 mg/kg i.p., p<0.01
Protocol: The test was performed as previously described (Zhang, H.-T., Crissman, A. M., Dorairaj, N. R., Chandler, L. J., and O'Donnell, J. M., Neuropsychopharmacology, 2000, 23, 198-204.). Five days after initial housing, rats (male Spraque-Dawley (Harlan) weighing 250 to 350 g) were placed in the eight-arm radial maze (each arm was 60×10×12 cm high; the maze was elevated 70 cm above the floor) for acclimation for two days. Rats were then placed individually in the center of the maze for 5 minutes with food pellets placed close to the food wells, and then, the next day, in the wells at the end of the arms; 2 sessions a day were conducted. Next, four randomly selected arms were then baited with one pellet of food each. The rat was restricted to the center platform (26 cm in diameter) for 15 seconds and then allowed to move freely throughout the maze until it collected all pellets of food or 10 minutes passed, whichever came first.
Four parameters were recorded: 1) working memory errors, i.e., entries into baited arms that had already been visited during the same trial; 2) reference memory errors, i.e., entries into unbaited arms; 3) total arm entries; and 4) the test duration (seconds), i.e., the time spent in the collection of all the pellets in the maze. […]
as §1

Q: C[C@]12N[C@H](Cc3ccccc31)c1ccccc12 [MK-801] was tested. Which “latency for entering the darkened compartment compared to the vehicle” value [1] did it give?
A: markedly reduced this latency

Q: What about the “frequencies of working and reference memory errors compared to control” value [2] of the same compound?
A: increased the frequencies of both working and reference memory errors
